system: HBsAg; test: HBsAg assay (CLIA of secreted HBsAg in HepG2.2.15 culture supernatant); format: cell-based, HBV; conditions: Hepatitis B virus
Method: HepG2.2.15 cells (Acs et al. Proc Natl Acad Sci USA, 84, (1987), 4641-4), a constitutively HBV-expressing cell line were cultured in DMEM+Glutamax-I medium (Invitrogen, Carlsbad, Calif., USA), supplemented with 10% fetal bovine serum (Invitrogen) and G418 (Invitrogen) at a final concentration of 200 mg/L and maintained in 5% CO2 at 37° C.
HepG2.2.15 cells were seeded in duplicate into white, 96-well plates at 1.5×10^4 cells/well. The cells were treated with a three-fold serial dilution series of the compounds in DMSO. The final DMSO concentration in all wells was 1% and DMSO was used as no drug control.
The HBsAg chemiluminescence immunoassay (CLIA) kit (Autobio Diagnostics Co., Zhengzhou, China, Catalog number: CL0310-2) was used to measure the levels of secreted HBV antigens semi-quantitatively. For the detection 50 μL/well culture supernatant was used and HBsAg was quantified using HBsAg chemiluminescence immunoassay (CLIA) kit (Autobio Diagnostics Co., Zhengzhou, China, Catalog number: CL0310-2), 50 μl of the supernatant was transferred to the CLIA assay plate and 50 μL of enzyme conjugate reagent was added into each well. The plates were sealed and gently agitated for 1 hour at room temperature. The supernatant-enzyme-mixture was discarded and wells were washed 6 times with 300 μL of PBS. The residual liquid was removed by plating the CLIA plate right side down on absorbent tissue paper. 25 μL of substrates A and B were added to each well. Luminance was measured using a luminometer (Mithras LB 940 Multimode Microplate Reader) after 10 minutes incubation. Dose-response curves were generated and the IC50 value was extrapolated by using the E-WorkBook Suite (ID Business Solutions Ltd., Guildford, UK).
The compounds of the present invention were tested for their capacity to inhibit HBsAg as described herein.

SMILES	IC50
COCCCOc1cc2c(cc1OC)-c1cc(=O)c(C(=O)Nc3nnn[nH]3)cn1C(C(C)C)C2 (stereo not drawn) [Example 36, 6-isopropyl-10-methoxy-9-(3-methoxypropoxy)-2-oxo-N-(1H-tetrazol-5-yl)-6,7-dihydrobenzo[a]quinolizine-3-carboxamide]	5.5 µM
COCCCOc1cc2c(cc1Cl)-c1cc(=O)c(C(=O)Nc3nnn[nH]3)cn1C(C(C)C)C2 (stereo not drawn) [Example 37, 10-chloro-6-isopropyl-9-(3-methoxypropoxy)-2-oxo-N-(1H-tetrazol-5-yl)-6,7-dihydrobenzo[a]quinolizine-3-carboxamide]	5.9 µM
COCCCOc1cc2c(cc1Cl)-c1cc(=O)c(C(=O)Nc3nnn[nH]3)cn1[C@H](C(C)C)C2 [Example 38, (+)-10-chloro-6-isopropyl-9-(3-methoxypropoxy)-2-oxo-N-(1H-tetrazol-5-yl)-6,7-dihydrobenzo[a]quinolizine-3-carboxamide]	2.3 µM

From patent US9920049B2 (priority 2014, dated 2018)
